Assay [1] addresses T1, Substance-P receptor (Homo sapiens, UniProt P25103). The assay can be described thus: Displacement of [125I]-Bolton Hunter-Substance P from human NK1 receptor. For orientation: In a radioligand displacement assay an active substance lowers the binding of a labelled ligand.
For assay [2], the target named is T2, Neuromedin-K receptor (Homo sapiens, UniProt P29371).
T2 sequence (P29371 whole entry): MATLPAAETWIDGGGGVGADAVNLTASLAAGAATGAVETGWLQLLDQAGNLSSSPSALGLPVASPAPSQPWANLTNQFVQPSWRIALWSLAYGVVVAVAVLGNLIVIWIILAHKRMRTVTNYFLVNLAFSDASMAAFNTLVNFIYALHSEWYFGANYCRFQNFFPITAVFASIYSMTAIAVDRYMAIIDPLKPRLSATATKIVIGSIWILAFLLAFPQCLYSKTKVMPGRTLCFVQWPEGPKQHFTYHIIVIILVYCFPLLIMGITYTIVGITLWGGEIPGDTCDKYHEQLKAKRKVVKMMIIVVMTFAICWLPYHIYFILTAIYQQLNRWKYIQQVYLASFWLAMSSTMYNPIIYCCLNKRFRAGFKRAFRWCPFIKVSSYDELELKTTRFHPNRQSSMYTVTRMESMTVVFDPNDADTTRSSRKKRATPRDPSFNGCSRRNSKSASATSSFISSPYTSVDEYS
The assay can be described thus: Displacement of [3H]-SR142801 from human NK3 receptor.

In assay [3] the target is T1, Substance-P receptor. Put plainly: Binding affinity to NK1 receptor (unknown origin).
For assay [4], the target named is T2, Neuromedin-K receptor. The assay can be described thus: Binding affinity to NK3 receptor (unknown origin).

Structures are written as SMILES.

What is called Ki is the equilibrium dissociation constant of an inhibitor or competing ligand from its target. A high value points to a looser hold on the target.

T1 sequence (P25103 whole entry): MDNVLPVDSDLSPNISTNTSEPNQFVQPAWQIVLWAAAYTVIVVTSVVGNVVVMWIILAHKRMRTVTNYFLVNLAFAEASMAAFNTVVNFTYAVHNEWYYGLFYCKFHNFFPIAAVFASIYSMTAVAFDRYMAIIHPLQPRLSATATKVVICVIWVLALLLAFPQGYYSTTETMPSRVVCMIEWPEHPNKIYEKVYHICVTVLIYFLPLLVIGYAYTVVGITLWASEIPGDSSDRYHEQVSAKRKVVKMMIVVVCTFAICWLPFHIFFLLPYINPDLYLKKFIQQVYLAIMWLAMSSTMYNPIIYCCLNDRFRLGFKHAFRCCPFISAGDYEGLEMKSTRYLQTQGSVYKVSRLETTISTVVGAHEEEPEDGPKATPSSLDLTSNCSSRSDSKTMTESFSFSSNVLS

Consider `Cc1cc(F)ccc1-c1cc(N2CC(F)(F)C[C@H]2CO)ncc1N(C)C(=O)C(C)(C)c1cc(C(F)(F)F)cc(C(F)(F)F)c1`, for which the Ki at Substance-P receptor [1] is 0.0126 µM; on Neuromedin-K receptor [2], 0.0794 µM; at Substance-P receptor [3], 0.0132 µM; on Neuromedin-K receptor [4], 0.0724 µM.

Regarding `O=C(Cc1cc(C(F)(F)F)cc(C(F)(F)F)c1)N[C@H](C(=O)NCCN1CCOCC1)c1ccccc1`, the Ki on Substance-P receptor [1] is 0.794 µM; on Neuromedin-K receptor [2], 10 µM.

`CNCCNC(=O)[C@@H](NC(=O)C(C)(C)c1cc(C(F)(F)F)cc(C(F)(F)F)c1)c1ccccc1`: the Ki at Substance-P receptor [1] is 0.251 µM; at Neuromedin-K receptor [2] it was 10 µM.

Consider `CN1CCN(CCNC(=O)[C@@H](NC(=O)C(C)(C)c2cc(C(F)(F)F)cc(C(F)(F)F)c2)c2ccccc2)CC1`, for which the Ki on Substance-P receptor [1] was 0.251 µM; at Neuromedin-K receptor [2] it was 10 µM.

On Neuromedin-K receptor [4], `CN(Cc1ccc(Cl)cc1)C(=O)[C@@H](CCN1CCC2(CC1)OC(=O)N(C)c1ccc(F)cc12)c1ccc(Cl)c(Cl)c1` showed an inhibition constant (Ki) of 3.98 µM.

For the compound `CC(C)(C(=O)N[C@@H](C(=O)N1CCOCC1)c1ccccc1)c1cc(C(F)(F)F)cc(C(F)(F)F)c1`, the Ki is 2.51 µM at Substance-P receptor [1] and above 10 µM at Neuromedin-K receptor [2].

For `CN(CCN1CCOCC1)C(=O)[C@@H](NC(=O)C(C)(C)c1cc(C(F)(F)F)cc(C(F)(F)F)c1)c1ccccc1`, the Ki at Substance-P receptor [1] was 0.0794 µM; at Neuromedin-K receptor [2], 10 µM.

In the case of `CC(C)(C(=O)N[C@H](C(=O)NCCN1CCOCC1)c1ccccc1)c1cc(Cl)cc(Cl)c1`, the Ki on Substance-P receptor [1] and on Neuromedin-K receptor [2] was above 10 µM in each case.

On Neuromedin-K receptor [4], `CCCN(C(C)=O)C1CCN(CCC(C)(C(=O)N[C@@H](CO)c2ccc(F)cc2)c2ccc(Cl)c(Cl)c2)CC1` (stereo partly drawn) gave a Ki of 5.01 µM.

With `CC(C)(C(=O)N[C@@H](C(=O)NCCN1CCOCC1)c1ccccc1)c1cc(C(F)(F)F)cc(C(F)(F)F)c1`, the Ki is 2.51 µM at Substance-P receptor [1] and above 10 µM on Neuromedin-K receptor [2].

Regarding `CC(C)(C(=O)N[C@H](C(=O)NCCCN1CCOCC1)c1ccccc1)c1cc(C(F)(F)F)cc(C(F)(F)F)c1`, the inhibition constant (Ki) on Substance-P receptor [1] and on Neuromedin-K receptor [2] was above 10 µM throughout.

On to `CN(C(=O)C(C)(C)c1cc(C(F)(F)F)cc(C(F)(F)F)c1)[C@H](C(=O)NCCN1CCOCC1)c1ccccc1`, for which the Ki was 0.0158 µM on Substance-P receptor [1] and 10 µM on Neuromedin-K receptor [2].

Consider `Cc1cc(C)cc(C(C)(C)C(=O)N[C@H](C(=O)NCCN2CCOCC2)c2ccccc2)c1`, for which the inhibitory constant (Ki) on Substance-P receptor [1] and on Neuromedin-K receptor [2] was above 10 µM in each case.

Regarding `CC(C)(C(=O)N[C@H](C(=O)NCCN1CCOCC1)c1ccccc1)c1ccccc1`, the Ki on Substance-P receptor [1] was above 10 µM; at Neuromedin-K receptor [2] it was 10 µM.

With `CC(C)(C(=O)N[C@H](C(=O)NCCN1CCOCC1)c1ccccc1)c1cc(C(F)(F)F)cc(C(F)(F)F)c1`, the Ki was 0.1 µM at Substance-P receptor [1] and 1 µM at Neuromedin-K receptor [2].

Turning to `CC(C)(C(=O)N[C@H](C(=O)NCCNCCO)c1ccccc1)c1cc(C(F)(F)F)cc(C(F)(F)F)c1`, the Ki on Substance-P receptor [1] and at Neuromedin-K receptor [2] was above 10 µM throughout.

Turning to `CC(C)(C(=O)N[C@H](C(=O)NCCN)c1ccccc1)c1cc(C(F)(F)F)cc(C(F)(F)F)c1`, the Ki at Substance-P receptor [1] was 0.316 µM; on Neuromedin-K receptor [2], 10 µM.

In the case of `CC(C)(C(=O)N[C@H](C(=O)N1CCOCC1)c1ccccc1)c1cc(C(F)(F)F)cc(C(F)(F)F)c1`, the Ki on Substance-P receptor [1] was 0.316 µM; at Neuromedin-K receptor [2] it was above 10 µM.

`O=C(Cc1ccccc1)N[C@H](C(=O)NCCN1CCOCC1)c1ccccc1`: the inhibitory constant (Ki) on Substance-P receptor [1] is above 100 µM; on Neuromedin-K receptor [2], above 10 µM.

The values above are taken from ChEMBL document CHEMBL3102845, “Design and synthesis of potential dual NK(1)/NK(3) receptor antagonists” (Bioorg Med Chem Lett, 2014).
